# Measured values published in US10413505B1, “Pharmaceutical compositions and methods of using the same” (priority 2017, dated 2019).
# Columns and labels:
# [1] = Example 1 single-dose plasma pharmacokinetics after intranasal administration; assay type: in vivo, human; settings: healthy subjects; single intranasal 160 mg cocaine HCl; plasma, >12 h after dosing
# Description: Single-dose plasma and urinary pharmacokinetics of the pharmaceutical composition following intranasal administration was characterized in this study. This was a single-dose study in 30 healthy volunteers. The objective of the study was to examine the systemic pharmacokinetics of the pharmaceutical composition following acute, topical intranasal administration.
# (§1) A single dose of a pharmaceutical composition was administered to both nostrils using cottonoid pledgets. […] Each pledget absorbed approximately 1 mL of pharmaceutical composition (i.e., 40 mg cocaine hydrochloride). Two soaked pledgets were placed into each nasal cavity of the subject and against the anterior septum for 20 minutes; thus, a total dose of 160 mg of cocaine hydrochloride was administered.
# Blood samples were collected pre-dose (30 minutes before pledget insertion), and 7.5, 15, 20, 30, 45, 60, 75, 90, and 105 minutes and 2, 3, 4, 6, 8, 10, and 12 hours from the start of application of the pharmaceutical composition.
# The effect of gender on Cmax, Tmax, AUClast, AUCinf, and t1/2 was determined. The effects of age, body weight, and BMI on AUClast were determined.
# [2] = Example 2 plasma pharmacokinetics, normal renal function vs severe renal impairment; settings: single intranasal 160 mg cocaine HCl, plasma
# [3] = Example 1 urinary pharmacokinetics after intranasal administration; assay type: in vivo, human; settings: healthy subjects; single intranasal 160 mg cocaine HCl; urine 0-12 h; metabolites as cocaine equivalents
# Description: as §1
# Urine samples were collected pre-dose and at the following intervals from the start of intranasal application of the pharmaceutical composition: 0-2 hours, 2-4 hours, 4-8 hours, and 8-12 hours. […] A 25-μL aliquot of each urine sample was processed by liquid-liquid extraction.
# Urinary pharmacokinetic parameters were analyzed using noncompartmental methods.
smiles,measurement,setting,value
"COC(=O)[C@@H]1[C@H]2CC[C@@H](C[C@@H]1O)N2C [EME, ecgonine methyl ester]",plasma level not exceeded (metabolite not detectable in plasma),[1],≤ 50 ng/mL
same,AUC0→t (Geometric mean),[2]; normal renal function,41.8 ng·h/mL
same,AUC0→t (Max),[2]; normal renal function,231 ng·h/mL
same,AUC0→t (Mean),[2]; normal renal function,64.0 ng·h/mL
same,AUC0→t (Median),[2]; normal renal function,46.3 ng·h/mL
same,AUC0→t (Min),[2]; normal renal function,9.3 ng·h/mL
same,AUC0→∞ (Geometric mean),[2]; normal renal function,79.3 ng·h/mL
same,AUC0→∞ (Max),[2]; normal renal function,241 ng·h/mL
same,AUC0→∞ (Mean),[2]; normal renal function,94.5 ng·h/mL
same,AUC0→∞ (Median),[2]; normal renal function,66.8 ng·h/mL
same,AUC0→∞ (Min),[2]; normal renal function,44.4 ng·h/mL
same,Clast (Geometric mean),[2]; normal renal function,1.505 ng/mL
same,Clast (Max),[2]; normal renal function,2.58 ng/mL
same,Clast (Mean),[2]; normal renal function,1.583 ng/mL
same,Clast (Median),[2]; normal renal function,1.42 ng/mL
same,Clast (Min),[2]; normal renal function,1.070 ng/mL
same,Cmax (Geometric mean),[2]; normal renal function,5.8 ng/mL
same,Cmax (Max),[2]; normal renal function,19.2 ng/mL
same,Cmax (Mean),[2]; normal renal function,7.5 ng/mL
same,Cmax (Min),[2]; normal renal function,1.8 ng/mL
same,Tlast (Geometric mean),[2]; normal renal function,12.3 h
same,Tlast (Max),[2]; normal renal function,32.0 h
same,Tlast (Mean),[2]; normal renal function,13.5 h
same,Tlast (Median),[2]; normal renal function,12.0 h
same,Tlast (Min),[2]; normal renal function,480 min
same,Tmax (Geometric mean),[2]; normal renal function,2.196 h
same,Tmax (Max),[2]; normal renal function,4.00 h
same,Tmax (Mean),[2]; normal renal function,2.698 h
same,Tmax (Median),[2]; normal renal function,3.0 h
same,Tmax (Min),[2]; normal renal function,20 min
same,t1/2 (Geometric mean),[2]; normal renal function,5.02 h
same,t1/2 (Max),[2]; normal renal function,6.67 h
same,t1/2 (Mean),[2]; normal renal function,5.12 h
same,t1/2 (Median),[2]; normal renal function,5.53 h
same,t1/2 (Min),[2]; normal renal function,217 min
same,AUC0→t (Geometric mean),[2]; severe renal impairment,180.2 ng·h/mL
same,AUC0→t (Max),[2]; severe renal impairment,382 ng·h/mL
same,AUC0→t (Mean),[2]; severe renal impairment,201.1 ng·h/mL
same,AUC0→t (Median),[2]; severe renal impairment,196 ng·h/mL
same,AUC0→t (Min),[2]; severe renal impairment,61.0 ng·h/mL
same,AUC0→∞ (Geometric mean),[2]; severe renal impairment,244.5 ng·h/mL
same,AUC0→∞ (Max),[2]; severe renal impairment,527 ng·h/mL
same,AUC0→∞ (Mean),[2]; severe renal impairment,267.5 ng·h/mL
same,AUC0→∞ (Median),[2]; severe renal impairment,242 ng·h/mL
same,AUC0→∞ (Min),[2]; severe renal impairment,143.9 ng·h/mL
same,Clast (Geometric mean),[2]; severe renal impairment,2.218 ng/mL
same,Clast (Max),[2]; severe renal impairment,5.85 ng/mL
same,Clast (Mean),[2]; severe renal impairment,2.46 ng/mL
same,Clast (Median),[2]; severe renal impairment,1.93 ng/mL
same,Clast (Min),[2]; severe renal impairment,1.51 ng/mL
same,Cmax (Geometric mean),[2]; severe renal impairment,10.3 ng/mL
same,Cmax (Max),[2]; severe renal impairment,20.5 ng/mL
same,Cmax (Mean),[2]; severe renal impairment,11.9 ng/mL
same,Cmax (Median),[2]; severe renal impairment,11.5 ng/mL
same,Cmax (Min),[2]; severe renal impairment,3.2 ng/mL
same,Tlast (Geometric mean),[2]; severe renal impairment,31.5 h
same,Tlast (Max),[2]; severe renal impairment,32.0 h
same,Tlast (Mean),[2]; severe renal impairment,31.5 h
same,Tlast (Median),[2]; severe renal impairment,32.0 h
same,Tlast (Min),[2]; severe renal impairment,1680 min
same,Tmax (Geometric mean),[2]; severe renal impairment,3.715 h
same,Tmax (Max),[2]; severe renal impairment,12.00 h
same,Tmax (Mean),[2]; severe renal impairment,4.53 h
same,Tmax (Median),[2]; severe renal impairment,4.00 h
same,Tmax (Min),[2]; severe renal impairment,90 min
same,t1/2 (Geometric mean),[2]; severe renal impairment,13.16 h
same,t1/2 (Max),[2]; severe renal impairment,25.70 h
same,t1/2 (Mean),[2]; severe renal impairment,13.97 h
same,t1/2 (Median),[2]; severe renal impairment,12.27 h
same,t1/2 (Min),[2]; severe renal impairment,488 min
same,Total Urinary Recovery (Geometric mean),[3],252 µg
same,Total Urinary Recovery (Mean),[3],275 µg
same,Total Urinary Recovery (Median),[3],276 µg
same,Urinary Recovery (Geometric mean),[3],0.240 % dose
same,Urinary Recovery (Mean),[3],0.262 % dose
same,Urinary Recovery (Median),[3],0.263 % dose
